Where a SMILES comes first, the peptide text is derived from it. Bridges are numbered along the chain shown (N, C = ends).
Experiments:
[1] = target: Neuronal acetylcholine receptor; alpha3/beta2 (Rattus norvegicus) (UniProt P04757+P12390); assay: Antagonist activity at rat alpha3beta2 nAChR expressed in Xenopus laevis oocytes assessed as inhibition of Ach-induced response at -70 mV holding potential incubated for 5 mins by voltage-clamp assay relative to LvIA IC50; assay type: cell-based; conditions: Oocyte
[2] = target: Neuronal acetylcholine receptor; alpha3/beta4 (Rattus norvegicus) (UniProt P04757+P12392); assay: Antagonist activity at rat alpha3beta4 nAChR expressed in Xenopus laevis oocytes assessed as inhibition of Ach-induced response at -70 mV holding potential incubated for 5 mins by voltage-clamp assay relative to LvIA IC50; assay type: cell-based; conditions: Oocyte
[3] = target: Neuronal acetylcholine receptor; alpha3/beta2 (Rattus norvegicus, UniProt P04757+P12390); assay: Antagonist activity at rat alpha3beta2 nAChR expressed in Xenopus laevis oocytes assessed as inhibition of Ach-induced response at -70 mV holding potential incubated for 5 mins by voltage-clamp assay; assay type: cell-based, Oocyte
Neuronal acetylcholine receptor; alpha3/beta2, sequence (P04757 whole entry): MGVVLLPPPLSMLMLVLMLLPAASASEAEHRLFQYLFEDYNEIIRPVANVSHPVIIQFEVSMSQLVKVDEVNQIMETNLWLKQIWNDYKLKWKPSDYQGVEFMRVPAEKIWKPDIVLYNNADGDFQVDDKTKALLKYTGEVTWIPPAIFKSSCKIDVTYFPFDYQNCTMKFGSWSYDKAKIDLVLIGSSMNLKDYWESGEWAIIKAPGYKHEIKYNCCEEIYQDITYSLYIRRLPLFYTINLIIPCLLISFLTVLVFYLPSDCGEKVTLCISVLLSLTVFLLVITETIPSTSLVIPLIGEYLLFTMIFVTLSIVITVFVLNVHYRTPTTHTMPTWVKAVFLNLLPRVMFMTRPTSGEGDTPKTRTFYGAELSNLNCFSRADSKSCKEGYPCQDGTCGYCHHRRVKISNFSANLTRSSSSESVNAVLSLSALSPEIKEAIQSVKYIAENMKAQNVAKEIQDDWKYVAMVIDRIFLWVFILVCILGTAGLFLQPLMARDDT
Neuronal acetylcholine receptor; alpha3/beta2, sequence (P12390 whole entry): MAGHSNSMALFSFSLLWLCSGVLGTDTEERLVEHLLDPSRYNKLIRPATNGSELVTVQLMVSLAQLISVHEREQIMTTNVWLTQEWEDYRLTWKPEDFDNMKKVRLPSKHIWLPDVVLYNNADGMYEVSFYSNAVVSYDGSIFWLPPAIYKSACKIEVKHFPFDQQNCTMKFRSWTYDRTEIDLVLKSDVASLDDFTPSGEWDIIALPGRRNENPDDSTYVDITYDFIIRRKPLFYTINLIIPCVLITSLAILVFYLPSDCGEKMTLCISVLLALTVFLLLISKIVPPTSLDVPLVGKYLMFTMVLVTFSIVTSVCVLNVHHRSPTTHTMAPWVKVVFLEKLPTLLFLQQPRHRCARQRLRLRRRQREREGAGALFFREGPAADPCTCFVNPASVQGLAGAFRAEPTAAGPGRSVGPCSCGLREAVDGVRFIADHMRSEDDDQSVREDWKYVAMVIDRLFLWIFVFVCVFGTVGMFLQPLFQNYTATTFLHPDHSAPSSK

[4] = Displacement of [125I]-alpha-bungarotoxin from Aplysia californica C-terminal His6-tagged N-terminal gp67 signal peptide-tagged acetylcholine receptor binding protein expressed in Hi5 insect cells preincubated for 3 hrs followed by [125I]-alpha-bungarotoxin measured after 5 mins by radioligand binding assay
[5] = target: Neuronal acetylcholine receptor; alpha3/beta4 (Rattus norvegicus, UniProt P04757+P12392); assay: Antagonist activity at rat alpha3beta4 nAChR expressed in Xenopus laevis oocytes assessed as inhibition of Ach-induced response at -70 mV holding potential incubated for 5 mins by voltage-clamp assay; assay type: cell-based, Oocyte
Neuronal acetylcholine receptor; alpha3/beta4, sequence (P04757 whole entry): as the sequence (P04757 whole entry) above
Neuronal acetylcholine receptor; alpha3/beta4, sequence (P12392 whole entry): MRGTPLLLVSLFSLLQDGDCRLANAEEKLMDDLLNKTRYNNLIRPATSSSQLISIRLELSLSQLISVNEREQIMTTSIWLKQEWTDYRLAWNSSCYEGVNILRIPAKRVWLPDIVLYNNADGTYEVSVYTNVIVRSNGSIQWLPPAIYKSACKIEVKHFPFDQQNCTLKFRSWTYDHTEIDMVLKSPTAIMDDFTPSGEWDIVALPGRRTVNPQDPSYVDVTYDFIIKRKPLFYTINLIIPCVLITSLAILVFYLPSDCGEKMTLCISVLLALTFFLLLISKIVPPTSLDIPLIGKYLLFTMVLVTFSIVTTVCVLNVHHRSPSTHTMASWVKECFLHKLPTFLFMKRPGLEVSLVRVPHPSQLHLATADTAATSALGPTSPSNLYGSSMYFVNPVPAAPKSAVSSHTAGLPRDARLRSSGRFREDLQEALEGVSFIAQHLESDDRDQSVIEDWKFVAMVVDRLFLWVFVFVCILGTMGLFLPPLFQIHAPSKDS

Rattus norvegicus = species: Rattus norvegicus; assay: Selectivity index, ratio of IC50 for rat alpha3beta4 nAChR expressed in Xenopus laevis oocytes to IC50 for rat alpha3beta2 nAChR expressed in Xenopus laevis oocytes; assay type: cell-based
Hi-5 = assay: Displacement of [125I]-alpha-bungarotoxin from Aplysia californica C-terminal His6-tagged N-terminal gp67 signal peptide-tagged acetylcholine receptor binding protein expressed in Hi5 insect cells preincubated for 3 hrs followed by [125I]-alpha-bungarotoxin measured after 5 mins by radioligand binding assay relative to LvIA IC50; conditions: time 185.0 min

SMILES	Ratio IC50 [1]	Ratio IC50 [2]	IC50 [3] [nM]	IC50 [4] [nM]	IC50 [5] [nM]	Ratio IC50 (Rattus norvegicus)	Ratio IC50 (Hi-5)
CC(C)[C@@H]1NC(=O)[C@H](CC(N)=O)NC(=O)[C@@H]2CSSC[C@H](NC(=O)CN)C(=O)N[C@@H](CSSC[C@@H](C(N)=O)NC(=O)[C@H](C)NC(=O)[C@H](CCC(=O)O)NC(=O)[C@@H]3CCCN3C(=O)[C@H](Cc3cnc[nH]3)NC(=O)[C@H](CC(=O)O)NC1=O)C(=O)N[C@@H](CO)C(=O)N[C@@H](Cc1cnc[nH]1)C(=O)N1CCC[C@H]1C(=O)N[C@@H](C)C(=O)N2 (H-GCCSHPACNVDHPEAC-NH2; disulfide 2-8, 3-16)	69	4.8	1080	24000	1400	1.3	1.02
CC[C@H](C)[C@@H]1NC(=O)[C@H](CCC(=O)O)NC(=O)[C@@H]2CCCN2C(=O)[C@H](Cc2cnc[nH]2)NC(=O)[C@H](CC(=O)O)NC(=O)[C@H](C(C)C)NC(=O)[C@H](CCCCN)NC(=O)[C@@H]2CSSC[C@H](NC(=O)CN)C(=O)N[C@@H](CSSC[C@@H](C(N)=O)NC1=O)C(=O)N[C@@H](CO)C(=O)N[C@@H](Cc1cnc[nH]1)C(=O)N1CCC[C@H]1C(=O)N[C@@H](C)C(=O)N2 (H-GCCSHPACKVDHPEIC-NH2; disulfide 2-8, 3-16)			3.8		2070	544	
CC[C@H](C)[C@@H]1NC(=O)[C@H](CCC(=O)O)NC(=O)[C@H](C)NC(=O)[C@H](Cc2cnc[nH]2)NC(=O)[C@H](CC(=O)O)NC(=O)[C@H](C(C)C)NC(=O)[C@H](CC(N)=O)NC(=O)[C@@H]2CSSC[C@H](NC(=O)CN)C(=O)N[C@@H](CSSC[C@@H](C(N)=O)NC1=O)C(=O)N[C@@H](CO)C(=O)N[C@@H](Cc1cnc[nH]1)C(=O)N1CCC[C@H]1C(=O)N[C@@H](C)C(=O)N2 (H-GCCSHPACNVDHAEIC-NH2; disulfide 2-8, 3-16)	13	1.9	202	7500	543	2.7	0.51
CC[C@H](C)[C@@H]1NC(=O)[C@H](C)NC(=O)[C@@H]2CCCN2C(=O)[C@H](Cc2cnc[nH]2)NC(=O)[C@H](CC(=O)O)NC(=O)[C@H](C(C)C)NC(=O)[C@H](CC(N)=O)NC(=O)[C@@H]2CSSC[C@H](NC(=O)CN)C(=O)N[C@@H](CSSC[C@@H](C(N)=O)NC1=O)C(=O)N[C@@H](CO)C(=O)N[C@@H](Cc1cnc[nH]1)C(=O)N1CCC[C@H]1C(=O)N[C@@H](C)C(=O)N2 (H-GCCSHPACNVDHPAIC-NH2; disulfide 2-8, 3-16)	1.9	0.6	29	760	181	6.2	-0.48
CC[C@H](C)[C@@H]1NC(=O)[C@H](CCC(=O)O)NC(=O)[C@@H]2CCCN2C(=O)[C@H](Cc2cnc[nH]2)NC(=O)[C@H](CC(=O)O)NC(=O)[C@H](C(C)C)NC(=O)[C@H](CC(N)=O)NC(=O)[C@@H]2CSSC[C@H](NC(=O)CN)C(=O)N[C@@H](CSSC[C@@H](C(N)=O)NC1=O)C(=O)N[C@@H](CO)C(=O)N[C@@H](C)C(=O)N1CCC[C@H]1C(=O)N[C@@H](C)C(=O)N2 (H-GCCSAPACNVDHPEIC-NH2; disulfide 2-8, 3-16)			> 10000	310000	> 10000		2.13
CC[C@H](C)[C@@H]1NC(=O)[C@H](CCC(=O)O)NC(=O)[C@@H]2CCCN2C(=O)[C@H](Cc2cnc[nH]2)NC(=O)[C@H](CC(=O)O)NC(=O)[C@H](C(C)C)NC(=O)[C@H](CC(=O)O)NC(=O)[C@@H]2CSSC[C@H](NC(=O)CN)C(=O)N[C@@H](CSSC[C@@H](C(N)=O)NC1=O)C(=O)N[C@@H](CO)C(=O)N[C@@H](Cc1cnc[nH]1)C(=O)N1CCC[C@H]1C(=O)N[C@@H](C)C(=O)N2 (H-GCCSHPACDVDHPEIC-NH2; disulfide 2-8, 3-16)	0.24	7.1	> 10000		> 10000		
CC[C@H](C)[C@@H]1NC(=O)[C@H](CCC(=O)O)NC(=O)[C@@H]2CCCN2C(=O)[C@H](Cc2cnc[nH]2)NC(=O)[C@H](CC(=O)O)NC(=O)[C@H](C)NC(=O)[C@H](CC(N)=O)NC(=O)[C@@H]2CSSC[C@H](NC(=O)CN)C(=O)N[C@@H](CSSC[C@@H](C(N)=O)NC1=O)C(=O)N[C@@H](CO)C(=O)N[C@@H](Cc1cnc[nH]1)C(=O)N1CCC[C@H]1C(=O)N[C@@H](C)C(=O)N2 (H-GCCSHPACNADHPEIC-NH2; disulfide 2-8, 3-16)	4.5	1.1	71	2500	309	4.4	0.036
CC[C@H](C)[C@@H]1NC(=O)[C@H](CCC(=O)O)NC(=O)[C@@H]2CCCN2C(=O)[C@H](Cc2cnc[nH]2)NC(=O)[C@H](CC(=O)O)NC(=O)[C@H](C(C)C)NC(=O)[C@H](CC(N)=O)NC(=O)[C@@H]2CSSC[C@H](NC(=O)CN)C(=O)N[C@@H](CSSC[C@@H](C(N)=O)NC1=O)C(=O)N[C@@H](CO)C(=O)N[C@@H](Cc1cnc[nH]1)C(=O)N[C@@H](C)C(=O)N[C@@H](C)C(=O)N2 (H-GCCSHAACNVDHPEIC-NH2; disulfide 2-8, 3-16)			> 10000	34000	> 10000		1.17
CC[C@H](C)[C@@H]1NC(=O)[C@H](CCC(=O)O)NC(=O)[C@@H]2CCCN2C(=O)[C@H](Cc2cnc[nH]2)NC(=O)[C@H](CC(=O)O)NC(=O)[C@H](C(C)C)NC(=O)[C@H]([C@@H](C)CC)NC(=O)[C@@H]2CSSC[C@H](NC(=O)CN)C(=O)N[C@@H](CSSC[C@@H](C(N)=O)NC1=O)C(=O)N[C@@H](CO)C(=O)N[C@@H](Cc1cnc[nH]1)C(=O)N1CCC[C@H]1C(=O)N[C@@H](C)C(=O)N2 (H-GCCSHPACIVDHPEIC-NH2; disulfide 2-8, 3-16)	0.21	1.1	7.5		5560	742	
CC[C@H](C)[C@@H]1NC(=O)[C@H](CCC(=O)O)NC(=O)[C@@H]2CCCN2C(=O)[C@H](C)NC(=O)[C@H](CC(=O)O)NC(=O)[C@H](C(C)C)NC(=O)[C@H](CC(N)=O)NC(=O)[C@@H]2CSSC[C@H](NC(=O)CN)C(=O)N[C@@H](CSSC[C@@H](C(N)=O)NC1=O)C(=O)N[C@@H](CO)C(=O)N[C@@H](Cc1cnc[nH]1)C(=O)N1CCC[C@H]1C(=O)N[C@@H](C)C(=O)N2 (H-GCCSHPACNVDAPEIC-NH2; disulfide 2-8, 3-16)			> 10000	670000	> 10000		2.46
CC[C@H](C)[C@@H]1NC(=O)[C@H](CCC(=O)O)NC(=O)[C@@H]2CCCN2C(=O)[C@H](Cc2cnc[nH]2)NC(=O)[C@H](CC(=O)O)NC(=O)[C@H](C(C)C)NC(=O)CNC(=O)[C@@H]2CSSC[C@H](NC(=O)CN)C(=O)N[C@@H](CSSC[C@@H](C(N)=O)NC1=O)C(=O)N[C@@H](CO)C(=O)N[C@@H](Cc1cnc[nH]1)C(=O)N1CCC[C@H]1C(=O)N[C@@H](C)C(=O)N2 (H-GCCSHPACGVDHPEIC-NH2; disulfide 2-8, 3-16)	0.48	19.2	> 10000		> 10000		
CC[C@H](C)[C@@H]1NC(=O)[C@H](CCC(=O)O)NC(=O)[C@@H]2CCCN2C(=O)[C@H](Cc2cnc[nH]2)NC(=O)[C@H](CC(=O)O)NC(=O)[C@H](C(C)C)NC(=O)[C@H](CC(C)C)NC(=O)[C@@H]2CSSC[C@H](NC(=O)CN)C(=O)N[C@@H](CSSC[C@@H](C(N)=O)NC1=O)C(=O)N[C@@H](CO)C(=O)N[C@@H](Cc1cnc[nH]1)C(=O)N1CCC[C@H]1C(=O)N[C@@H](C)C(=O)N2 (H-GCCSHPACLVDHPEIC-NH2; disulfide 2-8, 3-16)			3.2		325	102	

From ChEMBL document CHEMBL4699645 (2020)
